Measured values as given in ChEMBL document CHEMBL4732246, “Design, synthesis, and evaluation of a novel prodrug, a S-trityl--cysteine derivative targeting kinesin spindle protein” (Eur J Med Chem, 2021).

Columns and labels:
[1] = target: T1, Kinesin-like protein KIF11 (Homo sapiens, UniProt P52732); assay: Inhibition C-terminal His-tagged KSP motor domain(1 to 369 residues) (unknown origin) expressed in bacteria assessed as inhibition of microtubule-stimulated ATPase activity preincubated for 30 mins followed by addition of ATP and measured after 15 mins by luciferase-derived luminiscence assay
T1 sequence (P52732 whole entry): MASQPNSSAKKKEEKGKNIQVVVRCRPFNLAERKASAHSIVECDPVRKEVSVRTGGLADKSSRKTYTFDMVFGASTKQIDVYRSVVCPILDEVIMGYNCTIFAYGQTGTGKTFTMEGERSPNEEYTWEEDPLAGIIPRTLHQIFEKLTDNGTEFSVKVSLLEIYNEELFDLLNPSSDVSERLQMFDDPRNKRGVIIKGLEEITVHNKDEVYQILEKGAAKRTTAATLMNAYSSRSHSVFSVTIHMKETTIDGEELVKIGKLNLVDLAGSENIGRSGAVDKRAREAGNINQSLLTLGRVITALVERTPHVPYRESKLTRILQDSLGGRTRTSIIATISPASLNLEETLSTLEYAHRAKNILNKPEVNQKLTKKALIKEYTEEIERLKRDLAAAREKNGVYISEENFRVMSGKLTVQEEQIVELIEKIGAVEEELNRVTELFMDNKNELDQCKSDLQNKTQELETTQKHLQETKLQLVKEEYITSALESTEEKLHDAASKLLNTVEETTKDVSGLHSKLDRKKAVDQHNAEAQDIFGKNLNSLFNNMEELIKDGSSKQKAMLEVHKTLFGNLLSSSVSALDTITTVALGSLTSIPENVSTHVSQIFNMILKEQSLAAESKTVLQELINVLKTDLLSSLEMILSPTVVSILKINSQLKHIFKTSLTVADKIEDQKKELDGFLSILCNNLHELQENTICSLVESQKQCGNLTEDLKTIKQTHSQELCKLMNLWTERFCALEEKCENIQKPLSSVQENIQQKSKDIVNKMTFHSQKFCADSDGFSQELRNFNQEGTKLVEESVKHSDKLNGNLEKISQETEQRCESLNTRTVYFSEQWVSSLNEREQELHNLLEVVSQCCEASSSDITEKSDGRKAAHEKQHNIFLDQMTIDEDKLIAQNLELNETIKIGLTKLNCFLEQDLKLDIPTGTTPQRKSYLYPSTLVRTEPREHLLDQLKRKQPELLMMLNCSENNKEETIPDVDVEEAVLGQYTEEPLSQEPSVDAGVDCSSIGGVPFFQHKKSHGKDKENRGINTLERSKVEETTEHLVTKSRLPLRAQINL

HCT-116 = assay: Cytotoxicity against human HCT-116 cells assessed as cell growth inhibition measured after 72 hrs by MTS assay; type: functional
A549 = assay: Cytotoxicity against human A549 cells overexpressing GGT assessed as cell growth inhibition measured after 72 hrs by MTS assay; type: functional
NCI-H460 = assay: Cytotoxicity against human NCI-H460 cells expressing low GGT assessed as cell growth inhibition measured after 72 hrs by MTS assay; type: functional

| SMILES | IC50 [1] | GI50 (HCT-116) | GI50 (A549) | GI50 (NCI-H460) |
| --- | --- | --- | --- | --- |
| N[C@@H](CSC1(c2ccc(C(F)(F)F)cc2)c2ccccc2CCc2ccccc21)C(=O)O |  | 0.033 µM | 0.033 µM | 0.015 µM |
| CC(=O)N[C@@H](CSC1(c2ccc(C(F)(F)F)cc2)c2ccccc2CCc2ccccc21)C(=O)O |  | > 1 µM |  |  |
| CC(C)(C)OC(=O)N[C@@H](CSC1(c2ccc(C(F)(F)F)cc2)c2ccccc2CCc2ccccc21)C(=O)O |  | > 1 µM |  |  |

Further lines, with some results ahead:

| IC50 [1] | SMILES | GI50 (HCT-116) | GI50 (A549) | GI50 (NCI-H460) |
| --- | --- | --- | --- | --- |
| 0.056 µM | CN(C)CCNC(=O)[C@@H](N)CSC1(c2ccc(C(F)(F)F)cc2)c2ccccc2CCc2ccccc21 | 0.115 µM |  |  |
| 0.358 µM | N[C@@H](CSC1(c2ccc(C(F)(F)F)cc2)c2ccccc2CCc2ccccc21)C(=O)NCc1ccccc1 | 0.282 µM |  |  |
| 0.08 µM | N[C@@H](CSC1(c2ccc(C(F)(F)F)cc2)c2ccccc2CCc2ccccc21)C(=O)NCCO | 0.06 µM |  |  |
| 0.146 µM | N[C@@H](CSC1(c2ccc(C(F)(F)F)cc2)c2ccccc2CCc2ccccc21)C(=O)NCCN1CCCCC1 | 0.191 µM |  |  |
| 0.042 µM | NCCOCCOCCNC(=O)C(N)CSC1(c2ccc(C(F)(F)F)cc2)c2ccccc2CCc2ccccc21 (stereo not given) | 0.063 µM |  |  |
